The test system of one series is RPE cells. The conditions noted are these: cited from earlier work.
In series [1] the test system is human vagus nerve preparations. The conditions noted are these: in vitro; cited from earlier work.
Series [2] relates to guinea pig vagus nerve preparations. The following applies: in vitro; cited from earlier work.
Series [3] concerns rats following ligation of spinal nerves. The conditions noted are these: cited from earlier work.
The next series relates to human skin. The following applies: topical administration; cited from earlier work.
Series [4] deals with bovine nasal cartilage explants. The following applies: in vitro; cited from earlier work.
Another series relates to EAE mouse model. The conditions noted are these: in vivo; cited from earlier work.
The next series relates to ApoE knockout mice. The following applies: in vitro and in vivo; cited from earlier work.
Series [5] deals with models of inflammatory pain in rodents. The following applies: systemic delivery; cited from earlier work.
For series [6], the system named is healthy human subjects. As to the kind of experiment: phase 1b multiple ascending dose clinical trial. The format is in vivo. How it is done:
A phase 1b randomized, double-blind, placebo-controlled multiple ascending dose clinical trial was performed in 36 healthy human subjects to assess the safety, tolerability, and pharmacokinetics of APD371 (Compound B). Doses of 50 mg three times daily (TID), 100 mg TID, and 200 mg TID were administered for 10 days. Subjects were in the clinic for approximately 17 days (referred to as Day −2 to Day 15). Study medication (APD371 or placebo) was administered TID on Days 1-10, and once on Day 11. Each cohort included 12 human subjects, nine of whom were administered APD371 and three of whom were administered placebo.
(§1) Vital signs were measured for blood pressure and heart rate in the supine position after resting for five minutes. 12-lead electrocardiograms were used to measure RR, PR, QRS, QT, QTc, QTcB, and QTcF in the recumbent position after resting for 10 minutes. 5-lead electrocardiograms were used for continuous telemetry, with measurements taken during the last five minutes of a resting period of 14 minutes±1 minute in the supine position. Baseline measurements were taken prior to dosing.

Series [7] has as its system paclitaxel-induced neuropathic pain model. As to the kind of experiment: paclitaxel-induced neuropathic pain model. The following applies: in vivo.
Series [8] addresses T1, CB2 receptor (Homo sapiens, UniProt P34972). As to the kind of experiment: internalization of the CB2 receptor in a cell. It counts as cell-based. From the text: In some embodiments, the selective CB2 receptor agonist increases internalization of the CB2 receptor in a cell to at least 75%, at least 80%, at least 85%, at least 90%, at least 95%, at least 96%, at least 97%, at least 98%, or at least about 99% the level of internalization that would occur if the cell were contacted with CP55,940. In some embodiments, the CB2 receptor agonist that increases internalization of the CB2 receptor to at least 90% of CP55,940 is selected from: Compound B, Compound E, Compound G, and Compound H. CP55,940 has the following chemical structure: […]
(§2) Receptor internalization can be measured using a number of methods, including but not limited to measuring a loss of labeled receptor from the cell surface (e.g., using flow cytometry) measuring the appearance of receptors internalized in the cell (e.g., in characteristic punctate intracellular vesicles), and/or measuring the return of receptors recycled to the cell surface. For example, the number, density, and/or staining intensity of granules in the cell can be quantified. Receptor internalization can be measured using any appropriate method known to those of skill in the art. […]

The target in series [9] is T1, CB2 receptor. As to the kind of experiment: CB2 receptor agonism. It counts as cell-based. From the text: Other CB2 receptor agonist compounds can be identified e.g., using the Homogeneous Time-Resolved Fluorescence (HTRF®) Assay for direct cAMP measurement (Gabriel et al., ASSAY and Drug Development Technologies, 1:291-303, 2003) (see, e.g., Example 2 of WO2011/025541). Compounds can be screened for agonism of the CB2 receptor (e.g., human CB2 receptor) using the HTRF® assay for direct cAMP measurement (assay kit sold by Cisbio-US, Inc., Bedford, Mass.; Catalog #62AM4PEC) in recombinant CHO-K1 cells stably transfected with the CB2 receptor. […] The specific signal (i.e., fluorescence resonance energy transfer, FRET) is inversely proportional to the concentration of unlabeled cAMP in the standard or sample. An agonist of the CB2 receptor is detected in the HTRF® assay for direct cAMP measurement when a compound decreases cAMP concentration. […]
CB2 receptor agonist compounds can also be identified using the DiscoveRx PathHunter β-arrestin assay which measures the β-arrestin binding to the CB2 receptor upon its activation (see, e.g., Example 3 of WO2011/025541). […] Binding of β-arrestin to the activated GPCR causes the complementation of the two enzyme fragments, forming an active β-galactosidase enzyme which can be measured using the chemiluminescent PathHunter Flash Detection Kit (DiscoveRx, Fremont, Calif.: catalog #93-0001).

Series [10] deals with T1, CB2 receptor. As to the kind of experiment: CB2 receptor internalization efficacy relative to CP55,940. It counts as cell-based.
Text: (§3) In certain instances, the CB2 receptor agonist compounds identified using the HTRF® assay, the PathHunter-arrestin assay, and the radioligand binding assay can be tested for CB2 receptor internalization to select those agonists that induce robust internalization of the receptor in order to maintain a sufficient level of signaling for sustained in vivo efficacy. In certain embodiments, such agonists are preferred in the methods described herein.
as §2

A further series addresses rat CB2 receptor (Rattus norvegicus, UniProt Q9QZN9). The description is as above. The format is cell-based.
Text: as §3, §2

Series [11] relates to healthy human subjects. As to the kind of experiment: phase 1a single ascending dose clinical trial. The format is in vivo. How it is done: A phase 1a randomized, double-blind, placebo-controlled single ascending dose clinical trial was performed in 56 healthy human subjects to assess the safety, tolerability, and pharmacokinetics of APD371 (Compound B). Doses of 10 mg, 20 mg, 30 mg, 60 mg, 120 mg, 250 mg, and 400 mg were administered. Subjects were in the clinic for approximately 9 days (referred to as Day −2 to Day 7). Study medication (APD371 or placebo) was administered on Day 1. Each cohort included eight human subjects, six of whom were administered APD371 and two of whom were administered placebo.
as §1

Series [12] has as its system painful peripheral diabetic neuropathy model. As to the kind of experiment: painful peripheral diabetic neuropathy model. The conditions noted are these: in vivo.
For another series, the system named is preclinical animal model. As to the kind of experiment: preclinical animal model studies, cardiovascular effects. The format is in vivo.
Series [13] deals with osteoarthritis pain model. As to the kind of experiment: osteoarthritis pain model. It counts as in vivo.
The subject of series [14] is human CB2 receptor versus the human CB1 receptor. As to the kind of experiment: selectivity for the human CB2 receptor versus the human CB1 receptor. The procedure: In some embodiments, an agonist compound that is used in the methods described herein has selectivity for the CB2 Receptor. In some embodiments, selectivity refers to the relative in vitro potency of a compound for the CB2 receptor and another receptor. For example, in some embodiments, selectivity refers to the relative in vitro potency of a compound for the CB2 receptor versus the CB1 receptor. In some embodiments, in vitro potency is measured using a second messenger assay. In some embodiments, in vitro potency is measured using a cAMP assay. In some embodiments, selectivity is determined by comparing data generated using a β-arrestin assay. In some embodiments, selectivity is determined by comparing data generated from a GTP-yS binding assay. In some embodiments, selectivity is determined by comparing data generated from a reporter gene assay. In some embodiments, selectivity is determined by comparing data generated for a biomarker. In some embodiments, in vitro potency is quantified as EC50. In some embodiments, selectivity refers to the relative binding affinity of an agonist for the CB2 receptor and another receptor. In some embodiments, binding affinity is quantified as Ki.

Setting [15] is: 50, 100, 200 mg TID for 10 days.

“Also recorded” adds a separate entry of the source.

Data on 7 compounds can be found in patent US20190160058A1, “METHODS OF TREATMENT WITH SELECTIVE CB2 RECEPTOR AGONISTS” (Arena Pharmaceuticals, Inc., priority 2016, published 2019).

T1 sequence (P34972 whole entry): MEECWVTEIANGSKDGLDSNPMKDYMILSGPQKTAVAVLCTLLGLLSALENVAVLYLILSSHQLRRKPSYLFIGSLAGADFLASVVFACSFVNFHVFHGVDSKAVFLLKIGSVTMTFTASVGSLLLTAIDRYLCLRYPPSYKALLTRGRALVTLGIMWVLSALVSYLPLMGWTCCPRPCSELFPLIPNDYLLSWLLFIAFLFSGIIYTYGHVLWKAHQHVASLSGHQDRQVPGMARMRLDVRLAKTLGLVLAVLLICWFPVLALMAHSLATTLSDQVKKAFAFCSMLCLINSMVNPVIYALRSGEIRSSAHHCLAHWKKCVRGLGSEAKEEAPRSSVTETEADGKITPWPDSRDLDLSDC
rat CB2 receptor, sequence (Q9QZN9 whole entry): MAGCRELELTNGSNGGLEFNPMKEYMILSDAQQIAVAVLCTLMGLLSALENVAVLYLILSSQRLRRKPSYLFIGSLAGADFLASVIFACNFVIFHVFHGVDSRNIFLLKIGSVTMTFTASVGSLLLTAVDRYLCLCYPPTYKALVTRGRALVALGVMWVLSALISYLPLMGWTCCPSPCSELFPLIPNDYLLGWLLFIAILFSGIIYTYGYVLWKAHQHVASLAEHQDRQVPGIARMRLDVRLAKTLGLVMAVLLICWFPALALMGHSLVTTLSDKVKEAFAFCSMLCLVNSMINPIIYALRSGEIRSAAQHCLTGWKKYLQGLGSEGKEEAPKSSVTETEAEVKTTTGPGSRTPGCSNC

With `CCCCCCC(C)(C)c1ccc([C@@H]2C[C@H](O)CC[C@H]2CCCO)c(O)c1` [CP55,940], the “protection from oxidative damage” value in the series on RPE cells was “significantly protects RPE cells from oxidative damage”. Also, the “capsaicin-, PGE2-, and hypertonic saline-induced depolarization” value is “reduces capsaicin-, PGE2-, and hypertonic saline-induced depolarization” in series [1]; “reduces capsaicin-, PGE2-, and hypertonic saline-induced depolarization” in series [2].
For `COc1ccc2c(c1)c(CCN1CCOCC1)c(C)n2C(=O)c1cccc(Cl)c1Cl` [GW405833], the “hypersensitivity to mechanical stimuli” value in [3] (administered systemically) is “significantly reverses hypersensitivity to mechanical stimuli”.
With `CCCCCCC(C)(C)c1cc(O)c2c(c1)OC(C)(C)[C@@H]1CC=C(CO)C[C@@H]21` [HU-210], the histamine-induced responses entry in the series with human skin is recorded as “reduces these histamine-induced responses”. The “IL-1alpha-stimulated proteoglycan and collagen degradation” value in series [4] is “significantly inhibit”.
Regarding SR144528, the “blockade of the WIN 55212-2 effect on leukocyte rolling and adhesion” value in the series with EAE mouse model is listed as “blocked by the CB2-selective antagonist SR144528”. Moreover, in the series on ApoE knockout mice, the “blockade of the THC effect on atherosclerosis” value is “completely blocks this effect”.
As to `COc1ccc(C(=O)c2c(C)n(CCN3CCOCC3)c3cc(I)ccc23)cc1` [AM630], the “effect on the AM1241 reversal of hypersensitivity” value in [3] (rat, in vivo) is “inhibited by treatment with the CB2-selective antagonist AM630”.
As for `CN1CCCCC1Cn1cc(C(=O)c2cc([N+](=O)[O-])ccc2I)c2ccccc21` (centres unmarked) [AM1241], the “tactile and thermal hypersensitivity” value in series [3] (local (subcutaneous) or systemic administration) is “reverses tactile and thermal hypersensitivity”. The hyperalgesia result in [5] is “suppresses hyperalgesia”.
For `CC(C)(C)[C@@H](CO)NC(=O)c1nn(-c2c[n+]([O-])ccn2)c2c1C[C@@H]1C[C@H]21` [APD371, (1aS,5aS)-2-(4-Oxy-pyrazin-2-yl)-1a,2,5,5a-tetrahydro-1H-2,3-diaza-cyclopropa[a]pentalene-4-carboxylic Acid ((S)-1-Hydroxymethyl-2,2-dimethyl-propyl)-amide], in the series with healthy human subjects [6] (setting [15]), the exposure entry is given as “Dose-responsive exposure was observed”; the “most common adverse events” value is “headache and nausea”; the serious adverse events entry is on record as “no serious adverse events reported”; the “severity of adverse events” value is given as “mild”. For the same compound, the tolerability entry in the series on healthy human subjects [6] (setting [15]) is listed as “well tolerated with multiple dosing”. The “drug levels relative to those needed to stimulate the CB2 receptor” value with healthy human subjects [6] (all doses) is reported as “well above those needed to stimulate the CB2 receptor”. Further, the discontinuations result with healthy human subjects [6] (high-dose group) is “one discontinuation in the high-dose group due to an adverse event of mild thirst and somnolence”. Further, in the series with healthy human subjects [6] (multiple ascending dose), the “change in blood pressure” value is “asymptomatic reductions” and the “change in heart rate” value was “asymptomatic reductions”. In addition, in series [7], the “efficacy in model of paclitaxel-induced neuropathic pain” value was “sustained efficacy”. For the same compound, the “internalization of the CB2 receptor into cells” value on CB2 receptor [8] was “high level of internalization”. The “agonist efficacy at the CB2 receptor” value on CB2 receptor [9] was “full CB2 receptor agonist”. In addition, at CB2 receptor [10], the “receptor internalization efficacy relative to CP55,940” value was 96%. Also, at rat CB2 receptor, the “receptor internalization efficacy relative to CP55,940” value worked out at 105%. In the series with healthy human subjects [11] (single ascending dose), the “systolic and diastolic blood pressure compared to baseline” value was “Variations were also seen”. In the series on healthy human subjects [11] (single ascending dose, highest doses), the “mean change in heart rate compared to baseline” value is listed as “increase in heart rate was seen at the highest doses; also recorded: asymptomatic mean increase in heart rate”. Further, in the series with healthy human subjects [11] (single doses 10 mg to 400 mg), the exposure entry was “Dose-responsive exposure was observed” and the tolerability result is given as “well tolerated”. Moreover, the “efficacy in model of painful peripheral diabetic neuropathy” value in [12] is “sustained efficacy”. Also, the cardiovascular effects result with preclinical animal model is reported as “Cardiovascular effects were not seen”. In addition, the “efficacy in model of osteoarthritis pain” value in series [13] (in vivo) is “sustained efficacy”. The “duration of in vivo efficacy following dosing” value in series [13] (osteoarthritis pain model) is listed as “maintained in vivo efficacy for four hours following dosing”. Also, the plasma concentrations entry in series [13] (osteoarthritis pain model, following dosing) is listed as “rapidly declining plasma concentrations”. The “selectivity for the human CB2 receptor versus the human CB1 receptor” value in series [14] is > 1,000 fold.
